Legend:
OLFML3 = assay: Immunoblots for OLFML3 in GBM cells and GSCs; format: cell-based, human and mouse; settings: immunoblot
Experimental: Cell Culture. The GBM cell lines U87, U251, SF763, LN229, and CT2A, as well as 293T cells were cultured in Dulbecco's Modified Eagle's Medium (DMEM; Gibco, #11995-065). The mouse glioma cell line GL261 cells and SIM-A9 microglia were cultured in Dulbecco's Modified Eagle Medium-Ham's F12 medium (Gibco, #10565-018). HMC3 microglia were cultured in Eagle's Minimum Essential Medium (ATCC, #30-2003). THP-1 macrophages were cultured in RPMI 1640 medium (Gibco, #11875093). All cell lines were cultured in the indicated medium containing 10% fetal bovine serum (FBS; Fisher Scientific, #16140071) and 1:100 antibiotic-antimycotic (Gibco, #15140-122), and were purchased from the American Type Culture Collection (ATCC). Human GSCs (GSC23 and GSC7-10) and mouse GBM tumor-derived 005 GSCs and QPP7 GSCs were cultured in neural stem cell (NSC) proliferation media (Millipore, #SCM005) containing 20 ng/mL epidermal growth factor (EGF; PeproTech, #AF-100-15) and basic fibroblast growth factor (bFGF; PeproTech, #100-18B). Human GSCs were gifted by Dr. Frederick F. Lang from the Brain Tumor Center (The University of Texas MD Anderson Cancer Center). 005 GSCs and QPP7 GSCs were provided by Dr. Samuel D. Rabkin (Massachusetts General Hospital) and Dr. Jian Hu (The University of Texas MD Anderson Cancer Center), respectively. PTEN CRISPR KO in SF763 and LN229 cells were generated. […]

CT2A cells = assay: Survival of mice intracranially implanted with CT2A cells; format: in vivo, C57BL/6 mice; settings: CT2A 2×10^4 cells/mouse; BAPN 2 g/L drinking water from day 4; SR9009 100 mg/kg i.p. 10 days from day 7; anti-PD1 10 mg/kg i.p. days 11, 14, 17; radiation 2.5 Gy 4 days from day 7
Experimental: Mice and Intracranial Xenograft Tumor Models. Female C57BL/6 mice at 3 to 4 weeks of age were purchased from the Jackson Laboratory (#0000664). All animals were grouped by 5 mice per cage and maintained in IVC System (San Diego, CA) for a week before the experiment. All animal experiments were performed with the approval of the Institutional Animal Care and Use Committee (IACUC) at Northwestern University. The intracranial xenograft tumor models were established previously. In brief, mice were anesthetized by isoflurane through IMPAC6 Anesthesia System. Then a dental drill was used to open a small hole in the skull of mice 1.2 mm anterior and 3.0 mm lateral to the bregma. Mice were placed into the stereotactic apparatus, and 5 μL 005 GSC, CT2A, or GL261 cells in FBS-free culture medium were injected into the right caudate nucleus 3 mm below the surface of the brain using a 10 μL Hamilton syringe with an unbeveled 30-gauge needle. The incision was closed using Vetbond glue. Meloxicam (20 mg/kg, daily) was subcutaneously injected for pain relief for 3 days after surgery. […]
Statistical analysis. […] The survival analysis for animal models was determined by conducting Log-rank (Mantel-Cox) test. […]

Compound	expression of OLFML3 (OLFML3; human (U87, PTEN-KO SF763, GSC23, GSC7-10) and mouse (CT2A, 005 GSCs) cells, BAPN at indicated concentrations)	survival (CT2A cells)	LOX or P65 inhibition-induced OLFML3 upregulation (OLFML3; U87 and PTEN-KO SF763 cells, SR9009 5 μM with BAPN 200 μM or SC75741 5 μM)
N#CCCN [BAPN, β-aminopropionitrile]	increased	extended the survival	
CCOC(=O)N1CCC(CN(Cc2ccc(Cl)cc2)Cc2ccc([N+](=O)[O-])s2)C1 (stereo not drawn) [SR9009]			rescued

Source: patent US20250186396A1, “COMPOSITIONS AND METHODS FOR THE TREATMENT OF GLIOBLASTOMA WITH A DUAL TARGETING ANTI-TUMOR COMPOSITION” (Northwestern University, priority 2023, published 2025)
